Like-named read-outs stand apart in the source and are kept apart here.
What was measured:
5-HT1A receptors [1] = target: T1, 5-HT1A receptors (Rattus norvegicus, UniProt P19327); test: [11C]WAY-100635-PET of rats treated with 5,7-DHT, a toxicant for 5-HT neurons; conditions: 150 µg into right lateral ventricle, scan more than 2 weeks later
T1 sequence (P19327 1-422): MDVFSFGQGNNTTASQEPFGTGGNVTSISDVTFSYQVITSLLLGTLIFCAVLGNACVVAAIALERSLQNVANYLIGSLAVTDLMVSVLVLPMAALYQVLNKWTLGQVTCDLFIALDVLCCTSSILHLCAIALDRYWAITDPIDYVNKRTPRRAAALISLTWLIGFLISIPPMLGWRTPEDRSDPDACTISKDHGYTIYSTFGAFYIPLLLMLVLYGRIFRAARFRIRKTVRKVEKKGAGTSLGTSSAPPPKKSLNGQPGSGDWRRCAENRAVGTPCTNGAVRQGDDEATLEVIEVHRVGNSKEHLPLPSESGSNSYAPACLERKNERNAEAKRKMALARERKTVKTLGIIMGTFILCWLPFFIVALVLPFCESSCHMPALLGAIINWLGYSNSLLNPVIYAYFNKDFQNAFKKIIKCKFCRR

5-HT1A receptors [2] = target: T1, 5-HT1A receptors; test: Autoradiographic [35S]GTPγS binding in rat brain sections; type: biochemical; design: Twenty-micrometer-thick frozen brain sections were preincubated; from tissue; host or cells: rat brain (hippocampus and raphe nucleus): frozen sections or living animals
Description: Autoradiographic procedures were performed as described previously, with some modifications. The sections were preincubated for 15 min in 50 mM 4-(2-hydroxyethyl)-1-piperazineethanesulfonic acid (HEPES; pH 7.4) containing 10 mM NaCl, 3 mM MgCl2 and 0.2 mM ethylene glycol tetraacetic acid. A second preincubation using the same buffer containing 2 mM GDP was performed for 15 min. The sections were subsequently incubated in the same buffer containing 2 mM GDP, 0.2 mM dithiothreitol and 0.04 nM [^35S]GTPγS for 120 min. Basal [^35S]GTPγS binding was defined in the absence of test drugs. […] Nonspecific binding was estimated using 10 µM nonradioactive GTPγS. The incubation was terminated by ice-cold 50 mM HEPES (pH 7.0). The sections were desalted with ice-cold distilled water, dried, and placed in contact with an imaging plate for 2 days. Signal detection and image analysis were performed as described above.

5-HT1A receptors [3] = target: T1, 5-HT1A receptors; test: [11C]WAY-100635-PET, BPND and 5-HT1A receptor occupancy; type: in vivo; design: Twenty-micrometer-thick frozen brain sections were preincubated; from tissue; host or cells: rat brain (hippocampus and raphe nucleus): frozen sections or living animals; conditions: for BPND Hippocampus / BPND Raphe: [11C]WAY-100635; for receptor occupancy at 3 mg/kg / ED50 / receptor occupancy at 1 mg/kg / receptor occupancy at 10 mg/kg / receptor occupancy at 30 mg/kg: rat, ip; for ED50: read-out: ED50 (5-HT1A receptor occupancy), intraperitoneal, PET
Description: All PET scans were carried out using a microPET Focus 220 scanner (Siemens Medical Solutions USA, Knoxville, TN). The rats were anesthetized with 1.5–2% isoflurane in air (2 L/min flow rate). […] All list-mode data were stored into 3D sinograms, which were then Fourier-rebinned into 2D sinograms (26 frames: 4×1, 8×2, and 14×5 min). Images were reconstructed using 2D-filtered back-projection with a 0.5-mm Hanning filter. All PET images were manually coregistered to the MRI template by spatial translation and rotation of original PET images without geometric expansion and contraction. ROIs were placed on the hippocampus and raphe nucleus using PMOD® image analysis software (PMOD Group, Zurich, Switzerland) with reference to the MRI template. Fine-tuning of the location of ROIs was then performed based on PET images at an early phase (0–30 min) of the scan in order to compensate for small mismatches between coregistered PET and MR images. The cerebellum was used as reference tissue because of its negligible density of 5-HT1A receptors.

5-HT1A receptors [4] = target: T1, 5-HT1A receptors; test: Ex vivo ARG, 5-HT1A receptor occupancy after drug administration; type: in vivo; design: Twenty-micrometer-thick frozen brain sections were preincubated; from tissue; host or cells: rat brain (hippocampus and raphe nucleus): frozen sections or living animals; conditions: for ED50: rat, ip, read-out: ED50 (5-HT1A receptor occupancy), intraperitoneal, ex vivo ARG
Description: Animals were then killed by decapitation 5 h and 30 min after their administration, respectively. Autoradiographic analysis was performed using procedures similar to in vitro ARG except for incubation temperature (37°C) and times for preincubation (30 sec), incubation (5 min) and rinsing (1 min). […] The doses of these drugs at half-maximal effect (ED50) were determined according to the following relationship: [drawing 2] where D is the dose of the drug.

5-HT1A receptors [5] = target: T1, 5-HT1A receptors; test: In vitro ARG, inhibition of [11C]WAY-100635 binding in rat brain sections; design: Twenty-micrometer-thick frozen brain sections were preincubated; from tissue; host or cells: rat brain (hippocampus and raphe nucleus): frozen sections or living animals; conditions: hippocampus and raphe nucleus; up to 1000 nM
Description: Rats were sacrificed by decapitation. Twenty-micrometer-thick frozen brain sections were preincubated for 30 min in 50 mM Tris-HCl (pH 7.4) containing 1 mM MnCl2. […] Subsequently, the sections were rinsed twice with ice-cold Tris-HCl buffer for 5 min and then desalted with ice-cold distilled water for 10 sec. These samples were warmly blow-dried and placed in contact with an imaging plate (Fuji Film, Tokyo, Japan) for 60 min. Signals on the imaging plate were detected by BAS5000 system (Fuji Film).

[6] = rats; cited from earlier work
5-HT1A receptors [7] = conditions: maximal safe dose; cited from earlier work
[8] = humans; cited from earlier work
[9] = 1 mg/kg intraperitoneal, about 30 min before scan, mean ± S.E.
[10] = 3 mg/kg intraperitoneal + 30 mg/kg fluvoxamine (FLV) oral 30 min before pindolol, mean ± S.E.
[11] = 3 mg/kg intraperitoneal, about 30 min before scan, mean ± S.E.
[12] = 10 mg/kg intraperitoneal, about 30 min before scan, mean ± S.E.
[13] = 30 mg/kg intraperitoneal, about 30 min before scan, mean ± S.E.
[14] = read-out: Occupancy (%) Hippocampus

In the case of `NCCc1c[nH]c2c(O)cc(O)cc12` [5,7-DHT, 5,7-dihydroxytryptamine, reference compound], the “BPND for [11C]WAY-100635 after toxicant treatment” value (5-HT1A receptors [1]; hippocampus) is reported as “almost unchanged” and the “BPND for [11C]WAY-100635 after toxicant treatment” value (5-HT1A receptors [1]; raphe nucleus) is reported as “profoundly decreased”.

For `CCCN(CCC)C1CCc2cccc(O)c2C1` (stereo not drawn) [8-OH-DPAT, 8-hydroxy-2-(di-n-propylamino) tetralin], the “[35S]GTPγS binding” value (5-HT1A receptors [2]; hippocampus and raphe nucleus, addition of agonist) was “enhanced” and the “[35S]GTPγS binding compared with 1 µM WAY-100635” value (5-HT1A receptors [2]; raphe nucleus, 1 µM, p<0.01) was “significantly increased”.

For `COCCCC/C(=N\OCCN)c1ccc(C(F)(F)F)cc1` [fluvoxamine, reference compound], the “Effect on 5-HT1A receptor occupancies by pindolol” value (5-HT1A receptors [3]; 30 mg/kg oral, 30 min before pindolol treatment) was “had no effect”.

For `CC(C)NCC(O)COc1cccc2[nH]ccc12` (stereo not drawn) [Pindolol, reference compound], the “5-HT1A receptor binding (occupancy), dose-dependent up to” value (5-HT1A receptors [4]; intraperitoneal, 30 min after administration, irrespective of region) was roughly 70%, the ED50 (5-HT1A receptors [4]; hippocampus) was 8.5 mg/kg and the ED50 (5-HT1A receptors [4]; raphe nucleus) was 7.3 mg/kg. The “Slight increase in [35S]GTPγS binding” value (5-HT1A receptors [2]; high concentrations, hippocampus and raphe nucleus, p>0.05) was “not statistically significant”, the “Blockage of 5-HT1A receptors by excess amounts of drug” value (5-HT1A receptors [5]) was “near-complete blockage” and the “Proportion of protein-bound drug in plasma or serum” value [6] was 52%. The “Occupancy of 5-HT1A autoreceptors” value (5-HT1A receptors [7]) was 60%, the “BPND Hippocampus” value (5-HT1A receptors [3]; [9]) was 4.787±0.676 and the “BPND Raphe” value (5-HT1A receptors [3]; [9]) was 1.129±0.164. For the same compound, the “BPND Hippocampus” value (5-HT1A receptors [3]; [10]) was 3.670±0.315, the “BPND Raphe” value (5-HT1A receptors [3]; [10]) was 0.783±0.178 and the “BPND Hippocampus” value (5-HT1A receptors [3]; [11]) was 3.517±0.119. For the same compound, the “BPND Raphe” value (5-HT1A receptors [3]; [11]) was 0.752±0.093, the “BPND Hippocampus” value (5-HT1A receptors [3]; [12]) was 2.190±0.757 and the “BPND Raphe” value (5-HT1A receptors [3]; [12]) was 0.459±0.153. For the same compound, the “BPND Raphe” value (5-HT1A receptors [3]; 30 mg/kg intraperitoneal + 30 mg/kg fluvoxamine (FLV) oral 30 min before pindolol) was 0, the “BPND Hippocampus” value (5-HT1A receptors [3]; 30 mg/kg intraperitoneal + 30 mg/kg fluvoxamine (FLV) oral 30 min before pindolol, mean ± S.E.) was 0.343±0.065 and the “BPND Hippocampus” value (5-HT1A receptors [3]; [13]) was 0.441±0.173. The “BPND Raphe” value (5-HT1A receptors [3]; [13]) was 0.029±0.029, the receptor occupancy at 3 mg/kg (5-HT1A receptors [3]; read-out: Difference in occupancy between hippocampus and raphe nucleus) was roughly 50% and the ED50 (5-HT1A receptors [3]; hippocampus) was 5.6 mg/kg. For the same compound, the ED50 (5-HT1A receptors [3]; raphe nucleus) was 2.4 mg/kg, the receptor occupancy at 1 mg/kg (5-HT1A receptors [3]; [14]) was 15 ± 11.8% and the receptor occupancy at 3 mg/kg (5-HT1A receptors [3]; [14]) was 37 ± 5.6%. The receptor occupancy at 10 mg/kg (5-HT1A receptors [3]; [14]) was 58.1 ± 18.4%, the receptor occupancy at 30 mg/kg (5-HT1A receptors [3]; [14]) was 91.8 ± 3.4% and the receptor occupancy at 1 mg/kg (5-HT1A receptors [3]; read-out: Occupancy (%) Raphe) was 33.7 ± 14.5%. It also gave a receptor occupancy at 3 mg/kg (5-HT1A receptors [3]; read-out: Occupancy (%) Raphe) of 57.3 ± 2.8%, a receptor occupancy at 10 mg/kg (5-HT1A receptors [3]; read-out: Occupancy (%) Raphe) of 69.6 ± 14.6% and a receptor occupancy at 30 mg/kg (5-HT1A receptors [3]; read-out: Occupancy (%) Raphe) of 98.3 ± 1.7%. For the same compound, the “Proportion of protein-bound drug in plasma or serum” value [8] was 57%.
